# Laboratory results reported in ChEMBL document CHEMBL6115017, “Discovery of DFV890, a Potent Sulfonimidamide-Containing NLRP3 Inflammasome Inhibitor” (J Med Chem, 2025).
# Active and inactive are the calls of the source. The calls are words filed in the database; no cut-off is given here.
# Legend:
# [1] = Cytotoxicity against mouse CT26 cells measured after 72 hrs; assay type: toxicity, cell-based
# [2] = Fraction unbound in human plasma; assay type: ADME, cell-free
# [3] = Cytotoxicity against human HEK293 cells measured after 72 hrs; assay type: toxicity, cell-based
# [4] = Fraction unbound in C57 BL6 mouse plasma; assay type: ADME, cell-free
# [5] = molecular target: T1, PXR (Homo sapiens, UniProt O75469); assay: Activation of PXR (unknown origin) assessed as activation at 30 uM relative to control; assay type: toxicity; settings: read-out: Activity
# T1 sequence (O75469 whole entry): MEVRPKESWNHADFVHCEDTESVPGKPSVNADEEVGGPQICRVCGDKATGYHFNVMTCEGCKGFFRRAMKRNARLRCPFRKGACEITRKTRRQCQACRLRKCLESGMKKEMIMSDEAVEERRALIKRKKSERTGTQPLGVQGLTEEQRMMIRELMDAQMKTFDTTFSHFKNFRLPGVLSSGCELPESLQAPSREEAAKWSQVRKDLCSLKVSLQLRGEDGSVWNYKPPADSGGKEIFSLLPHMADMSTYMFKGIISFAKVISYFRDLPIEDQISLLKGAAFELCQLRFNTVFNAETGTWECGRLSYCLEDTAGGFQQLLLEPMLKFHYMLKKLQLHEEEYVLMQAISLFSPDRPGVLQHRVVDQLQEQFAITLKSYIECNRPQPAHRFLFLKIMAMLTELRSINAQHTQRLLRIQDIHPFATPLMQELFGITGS
# [6] = Oral bioavailability in Beagle dog at 2 mg/kg administrated through oral gavage by LC-MS analysis; assay type: ADME, organism-based, Canis lupus familiaris; settings: in vivo
# [7] = Cmax in C57 BL6 mouse at 10 mg/kg, po by LC-MS analysis; assay type: ADME, organism-based; settings: in vivo
# [8] = test system: PBMC; assay: Antagonist activity at NLRP3 inflammasome activation in Cynomolgus monkey PBMC assessed as inhibition of LPS-stimulated IL-1beta release by measuring free concentration pretreated for 1 hr followed by induced with LPS measured after 18 hrs by HTRF analysis; assay type: cell-based; settings: Macaca fascicularis, filed as antagonist, time 19.0 hrs
# [9] = Volume of distribution at steady state in Sprague-Dawley rat at 5 mg/kg, po by LC-MS analysis; assay type: ADME, organism-based; settings: in vivo
# [10] = In vivo inhibition of NLRP3 dependent cytokine production in po dosed LPS-challenged C57BL/6 mouse model assessed as inhibition of LPS-induced IL-1beta production in blood by measuring plasma compound concentration by enhanced flex bead assay; assay type: functional, organism-based
# [11] = test system: Mus musculus; assay: In vivo anti-inflammatory activity against MSU crystal-induced gouty arthritis Balb/c mouse model assessed as reduction of volume of pouch exudate at 0.1 to 50 mg/kg, po single dose; assay type: functional, organism-based; settings: dose 0.1-50 mg/kg
# [12] = Half life in Beagle dog at 2 mg/kg, po and 1 mg/kg, iv by LC-MS analysis; assay type: ADME, organism-based, Canis lupus familiaris; settings: in vivo
# [13] = Volume of distribution at steady state in C57 BL6 mouse at 10 mg/kg, po and 2 mg/kg, iv by LC-MS analysis; assay type: ADME, organism-based; settings: in vivo
# [14] = Metabolic stability in mouse hepatocytes assessed as intrinsic clearance measured per 10^6 cells; assay type: ADME, cell-based, Hepatocyte; settings: read-out: CLH
# [15] = Volume of distribution at steady state in Beagle dog at 2 mg/kg, po and 1 mg/kg, iv by LC-MS analysis; assay type: ADME, organism-based, Canis lupus familiaris; settings: in vivo
# [16] = AUC (infinity) in Beagle dog at 2 mg/kg, po by LC-MS analysis; assay type: ADME, organism-based, Canis lupus familiaris; settings: in vivo
# [17] = Oral bioavailability in C57 BL6 mouse at 10 mg/kg administrated through oral gavage by LC-MS analysis; assay type: ADME, organism-based; settings: in vivo
# [18] = molecular target: Cytochrome P450 3A4 (Homo sapiens, UniProt P08684); assay: Inhibition of CYP3A4 (unknown origin) by time dependent inhibition assay; assay type: ADME
# [19] = molecular target: T2, Cytochrome P450 3A5 (Homo sapiens, UniProt P20815); assay: Inhibition of CYP3A5 (unknown origin); assay type: ADME
# [20] = test system: Mus musculus; assay: In vivo inhibition of NLRP3 dependent cytokine production in po dosed LPS-challenged C57BL/6 mouse model assessed as inhibition of LPS-induced IL-6 production in blood pretreated for 1 hr followed by induced with LPS measured after 5 hrs by cytokine bead assay; assay type: functional, organism-based; settings: time 6.0 hrs
# [21] = Metabolic stability in rat hepatocytes assessed as intrinsic clearance measured per 10^6 cells; assay type: ADME, cell-based, Hepatocyte; settings: read-out: CLH
# [22] = Fraction unbound in Cynomolgus monkey plasma; assay type: ADME, cell-free, Macaca fascicularis
# [23] = Oral bioavailability in Sprague-Dawley rat at 5 mg/kg administered through oral gavage by LC-MS analysis; assay type: ADME, organism-based; settings: in vivo
# [24] = Thermodynamic solubility in PBS at pH 1; assay type: physicochemical; settings: read-out: Therm_solubility
# [25] = test system: THP-1; assay: Inhibition of pyroptosis in PMA-primed human THP-1 cells assessed as release of lactate dehydrogenase
# [26] = Half life in Cynomolgus monkey at 5 mg/kg, po and 2 mg/kg, iv by LC-MS analysis; assay type: ADME, organism-based, Macaca fascicularis; settings: in vivo
# [27] = molecular target: T2, Cytochrome P450 3A5; assay: Inhibition of CYP3A5 (unknown origin) by time dependent inhibition assay; assay type: ADME
# [28] = Thermodynamic solubility in Simulated colon solution; assay type: physicochemical; settings: read-out: Therm_solubility
# [29] = Metabolic stability in human hepatocytes assessed as intrinsic clearance measured per 10^6 cells; assay type: ADME, cell-based, Hepatocyte; settings: read-out: CLH
# [30] = molecular target: Voltage-gated inwardly rectifying potassium channel KCNH2 (Homo sapiens, UniProt Q12809); assay: Inhibition of hERG; assay type: toxicity
# [31] = Solubility of the compound in PBS at pH 7.4; assay type: physicochemical
# [32] = molecular target: T3, Cytochrome P450 2B6 (Homo sapiens, UniProt P20813); assay: Inhibition of CYP2B6 (unknown origin) by time dependent inhibition assay; assay type: ADME
# T3 sequence (P20813 whole entry): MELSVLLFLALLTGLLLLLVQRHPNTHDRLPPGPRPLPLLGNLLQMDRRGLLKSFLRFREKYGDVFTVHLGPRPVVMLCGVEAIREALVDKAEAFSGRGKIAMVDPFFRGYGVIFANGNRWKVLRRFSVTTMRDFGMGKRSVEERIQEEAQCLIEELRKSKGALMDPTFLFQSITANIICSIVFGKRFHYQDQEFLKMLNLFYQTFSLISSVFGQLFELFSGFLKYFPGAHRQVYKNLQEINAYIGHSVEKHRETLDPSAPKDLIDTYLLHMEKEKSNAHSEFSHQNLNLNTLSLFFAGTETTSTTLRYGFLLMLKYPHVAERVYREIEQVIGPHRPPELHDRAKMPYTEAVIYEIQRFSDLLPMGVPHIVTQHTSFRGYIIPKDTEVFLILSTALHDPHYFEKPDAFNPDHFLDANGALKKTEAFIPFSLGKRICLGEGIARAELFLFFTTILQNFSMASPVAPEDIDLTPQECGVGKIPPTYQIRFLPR
# [33] = Cmax in Cynomolgus monkey at 5 mg/kg, po by LC-MS analysis; assay type: ADME, organism-based, Macaca fascicularis; settings: in vivo
# [34] = molecular target: hERG (Homo sapiens, UniProt Q12809); assay: Inhibition of hERG at 30 uM relative to control; assay type: toxicity
# [35] = Half life in Sprague-Dawley rat at 5 mg/kg, po by LC-MS analysis; assay type: ADME, organism-based; settings: in vivo
# T2 sequence (P20815 whole entry): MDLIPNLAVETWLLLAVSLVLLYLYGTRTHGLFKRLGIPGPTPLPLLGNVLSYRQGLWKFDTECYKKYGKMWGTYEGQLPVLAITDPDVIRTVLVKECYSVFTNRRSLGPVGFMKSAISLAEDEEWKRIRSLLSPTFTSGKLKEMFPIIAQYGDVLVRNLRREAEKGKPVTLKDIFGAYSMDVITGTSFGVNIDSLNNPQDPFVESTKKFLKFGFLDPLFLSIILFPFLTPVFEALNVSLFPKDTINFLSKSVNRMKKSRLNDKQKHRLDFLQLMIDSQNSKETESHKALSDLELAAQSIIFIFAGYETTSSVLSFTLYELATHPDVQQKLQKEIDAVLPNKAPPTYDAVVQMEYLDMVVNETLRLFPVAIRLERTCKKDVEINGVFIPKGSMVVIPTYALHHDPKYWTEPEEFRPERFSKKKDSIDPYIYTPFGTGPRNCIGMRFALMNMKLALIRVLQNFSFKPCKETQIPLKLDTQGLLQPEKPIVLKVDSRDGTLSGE
# Sequence of hERG (Q12809 whole entry): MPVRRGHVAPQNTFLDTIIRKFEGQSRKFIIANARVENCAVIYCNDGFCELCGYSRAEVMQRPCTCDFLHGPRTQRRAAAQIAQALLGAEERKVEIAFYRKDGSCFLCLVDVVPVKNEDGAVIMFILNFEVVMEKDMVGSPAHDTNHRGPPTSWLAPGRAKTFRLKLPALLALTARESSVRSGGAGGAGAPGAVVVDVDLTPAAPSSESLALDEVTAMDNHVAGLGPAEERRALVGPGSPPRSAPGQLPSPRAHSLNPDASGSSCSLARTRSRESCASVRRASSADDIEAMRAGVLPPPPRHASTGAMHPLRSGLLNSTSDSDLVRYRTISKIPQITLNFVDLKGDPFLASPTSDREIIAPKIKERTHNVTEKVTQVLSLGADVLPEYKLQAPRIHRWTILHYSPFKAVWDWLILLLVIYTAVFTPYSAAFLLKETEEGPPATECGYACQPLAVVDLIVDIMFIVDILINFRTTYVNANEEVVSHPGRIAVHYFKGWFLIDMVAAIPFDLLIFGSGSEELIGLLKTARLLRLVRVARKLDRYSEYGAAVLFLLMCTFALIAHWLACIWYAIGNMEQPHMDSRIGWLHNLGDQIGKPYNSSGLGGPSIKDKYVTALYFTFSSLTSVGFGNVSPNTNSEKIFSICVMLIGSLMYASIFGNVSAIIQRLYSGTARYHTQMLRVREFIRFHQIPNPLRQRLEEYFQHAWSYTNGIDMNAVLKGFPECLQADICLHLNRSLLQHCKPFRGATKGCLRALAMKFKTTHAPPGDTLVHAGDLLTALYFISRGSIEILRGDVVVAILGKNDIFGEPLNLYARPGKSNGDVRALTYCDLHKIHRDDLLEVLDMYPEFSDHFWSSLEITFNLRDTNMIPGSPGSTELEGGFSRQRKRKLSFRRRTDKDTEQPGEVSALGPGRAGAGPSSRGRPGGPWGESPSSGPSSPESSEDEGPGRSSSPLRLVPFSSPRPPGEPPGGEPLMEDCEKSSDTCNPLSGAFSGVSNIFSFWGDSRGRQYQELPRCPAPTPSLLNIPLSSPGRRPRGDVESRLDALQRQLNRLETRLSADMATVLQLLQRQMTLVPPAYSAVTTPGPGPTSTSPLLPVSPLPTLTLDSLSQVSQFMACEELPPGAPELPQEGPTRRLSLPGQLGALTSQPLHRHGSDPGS
# Sequence of Voltage-gated inwardly rectifying potassium channel KCNH2 (Q12809 whole entry): as above
# Sequence of Cytochrome P450 3A4 (P08684 whole entry): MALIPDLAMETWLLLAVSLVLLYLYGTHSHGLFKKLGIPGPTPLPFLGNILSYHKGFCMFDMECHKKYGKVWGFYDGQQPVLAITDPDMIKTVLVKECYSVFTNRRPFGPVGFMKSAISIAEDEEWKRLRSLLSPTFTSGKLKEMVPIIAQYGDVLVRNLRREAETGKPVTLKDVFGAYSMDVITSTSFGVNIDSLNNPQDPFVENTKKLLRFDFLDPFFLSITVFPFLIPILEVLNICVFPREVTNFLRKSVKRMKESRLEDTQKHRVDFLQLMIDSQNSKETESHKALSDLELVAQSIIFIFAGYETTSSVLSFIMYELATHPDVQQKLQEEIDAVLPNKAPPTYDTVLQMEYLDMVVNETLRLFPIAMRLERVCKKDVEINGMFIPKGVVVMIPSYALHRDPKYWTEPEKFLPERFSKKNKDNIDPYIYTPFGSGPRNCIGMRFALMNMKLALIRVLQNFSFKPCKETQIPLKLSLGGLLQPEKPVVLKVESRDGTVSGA
smiles,measurement,setting,value
CC(C)(O)c1ncc([S@](N)(=O)=NC(=O)Nc2c3c(cc4c2CCC4)CCC3)s1,EC50 at 72 h,[1],> 100 µM
same,fraction unbound,[2],0.006
same,EC50 at 72 h,[3],> 100 µM
same,fraction unbound,[4],0.015
same,activity at 30 µM,[5],19%
same,bioavailability,[6],97%
same,Cmax,[7],22.2 µg/mL
same,fIC50,[8],1 nM
same,Vdss,[9],0.188 L/kg
same,IC50,"[10]; Mus musculus, C57BL/6",0.416 mg/L
same,IC90,[10]; route po,3.742 mg/L
same,Activity,[11],Active
same,half-life,[12],9.4 h
same,Vdss,[13],0.12 L/kg
same,hepatocyte CLint,[14],< 1.9 µL/min/1e6 cells
same,Vdss,[15],0.16 L/kg
same,AUC(0-inf),[16],163 µg·h/mL
same,bioavailability,[17],61%
same,TDI,[18],Not_active
same,IC50,[19],> 60 µM
same,inhibition,[20],Dose-dependent-effect
same,hepatocyte CLint,[21],7.5 µL/min/1e6 cells
same,fraction unbound,[22],0.005
same,bioavailability,[23],82%
same,solubility thermodynamic,[24],0.0074 mg/mL
same,IC50,[25],0.027 µM
same,half-life,[26],5.2 h
same,TDI,[27],Not_active
same,solubility thermodynamic,[28],0.0319 mg/mL
same,hepatocyte CLint,[29],8.4 µL/min/1e6 cells
same,IC50,[30],> 30 µM
same,solubility,[31],0.021 mg/mL
same,TDI,[32],Not_active
same,Cmax,[33],21.5 µg/mL
same,inhibition at 30 µM,[34],8%
same,half-life,[35],2.81 h
